Reference: PMC7316388 (European journal of cell biology, 2010)

Molecular target: CREB (Mus musculus, UniProt Q01147)
Assay: chromatin immunoprecipitation, CREB binding to c-fos promoter
Type: cell-based
Conditions: 100 μM compound with lipofectamine, 24 h, NIH3T3 cells

Chain of CREB (Q01147 whole entry): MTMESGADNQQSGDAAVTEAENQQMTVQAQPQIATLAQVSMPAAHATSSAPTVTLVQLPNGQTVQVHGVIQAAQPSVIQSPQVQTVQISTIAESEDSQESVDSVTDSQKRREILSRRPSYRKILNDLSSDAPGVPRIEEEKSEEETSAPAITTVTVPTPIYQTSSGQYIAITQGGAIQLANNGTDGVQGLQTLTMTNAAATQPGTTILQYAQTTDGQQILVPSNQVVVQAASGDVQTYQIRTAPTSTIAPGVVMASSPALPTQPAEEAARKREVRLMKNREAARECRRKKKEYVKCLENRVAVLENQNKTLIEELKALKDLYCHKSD

`O=S(=O)(O)c1cc[c]([Sb](=[O])([OH])[OH])cc1` [NSC13746] was tested, and the “% reduction in CREB DNA binding at 100 μM” value was 30%.
